Test results as given in ChEMBL document CHEMBL1130535, “Synthesis of triphosphonate analogues of farnesyl pyrophosphate. Inhibitors of squalene synthase and protein:farnesyl transferase” (Bioorg Med Chem Lett, 1997).

How the values were obtained:
[1] = biological target: T1, Squalene synthase (Homo sapiens, UniProt P37268); experiment: Inhibition of Squalene Synthase
T1 sequence (P37268 whole entry): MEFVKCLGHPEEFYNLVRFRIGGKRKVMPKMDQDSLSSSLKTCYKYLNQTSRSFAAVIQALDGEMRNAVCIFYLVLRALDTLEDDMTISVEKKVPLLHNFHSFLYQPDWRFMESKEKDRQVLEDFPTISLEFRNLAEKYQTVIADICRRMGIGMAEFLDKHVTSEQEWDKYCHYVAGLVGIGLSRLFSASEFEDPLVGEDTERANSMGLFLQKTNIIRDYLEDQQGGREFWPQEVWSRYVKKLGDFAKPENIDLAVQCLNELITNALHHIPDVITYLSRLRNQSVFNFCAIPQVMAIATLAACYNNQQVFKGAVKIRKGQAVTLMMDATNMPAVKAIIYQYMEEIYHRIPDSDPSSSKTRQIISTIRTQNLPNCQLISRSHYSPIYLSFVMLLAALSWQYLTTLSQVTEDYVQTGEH

[2] = biological target: Protein farnesyltransferase (Homo sapiens, UniProt P49354+P49356); experiment: Inhibition of Farnesyl Transferase; type: protein-complex assay

CC(C)=CCC/C(C)=C/CC/C(C)=C/CC(C/C=C(\C)CC/C=C(\C)CCC=C(C)C)(P(=O)(O)O)P(=O)(O)CP(=O)(O)O (stereo not given)
IC50 [1]: 23.3 µM
IC50 [2]: 3.99 µM

CC(C)=CCC/C(C)=C/CC/C(C)=C/CC(P(=O)(O)O)P(=O)(O)O
IC50 [1]: 0.018 µM
IC50 [2]: 13.5 µM

CC(C)=CCC/C(C)=C/CC/C(C)=C/CC1P(=O)(O)CP(=O)(O)OP1(=O)O (stereo not given)
IC50 [1]: 46.4 µM
IC50 [2]: 34.2 µM

CC(C)=CCC/C(C)=C/CC/C(C)=C/CC(P(=O)(O)O)P(=O)(O)CP(=O)(O)O (stereo not given)
IC50 [1]: 1.1 µM
IC50 [2]: 1.81 µM

CC(C)=CCC/C(C)=C/CC/C(C)=C/CC1(C/C=C(\C)CC/C=C(\C)CCC=C(C)C)P(=O)(O)CP(=O)(O)OP1(=O)O (stereo not given)
IC50 [1]: > 50 µM
IC50 [2]: 56.2 µM
